In BindingDB's records for patent US20240109915 (Pfizer, 2024):

Biological target: Acetyl-CoA carboxylase 1 (Homo sapiens, UniProt Q13085)
Assay: Inhibition of the Activity of ACC1
Experimental: The direct inhibition of ACC1 for the compounds of the present invention was determined using preparations of recombinant human ACC1 (rhACC1) (SEQ ID NO. 1). Preparation of rhACC1: Two liters of SF9 cells, infected with recombinant baculovirus containing full length human ACC1 cDNA, were suspended in ice-cold lysis buffer (25 mM Tris, pH 7.5; 150 mM NaCl; 10% glycerol; 5 mM imidazole (EMD Bioscience; Gibbstown, NJ); 2 mM TCEP (BioVectra; Charlottetown, Canada); Benzonase nuclease (10000 U/100 g cell paste; Novagen; Madison, WI); EDTA-free protease inhibitor cocktail (1 tab/50 ml; Roche Diagnostics; Mannheim, Germany). Cells were lysed by 3 cycles of freeze-thaw and centrifuged at 40,000×g for 40 minutes (4° C.). Supernatant was directly loaded onto a HisTrap FF crude column (GE Healthcare; Piscataway, NJ) and eluted with an imidazole gradient up to 0.5 M over 20 column volumes (CV). ACC1-containing fractions were pooled and diluted 1:5 with 25 mM Tris, pH 7.5, 2 mM TCEP, 10% glycerol and direct loaded onto a CaptoQ (GE Healthcare) column and eluted with an NaCl gradient up to 1 M over 20 CV's. Phosphate groups were removed from purified ACC1 by incubation with lambda phosphatase (100 U/10 μM target protein; New England Biolabs; Beverly, MA) for 14 hours at 4° C.; okadaic acid was added (1 μM final concentration; Roche Diagnostics) to inhibit the phosphatase. […]

Row | IC50 [nM] | Structure (SMILES)
1 | 22.9 | Cn1ncc2c(Cl)cc(C(=O)N3CCC4(CC3)CC(=O)c3nc(C(C)(C)C)sc3C4)cc21 [US20240109915, Example 73]
2 | 92.6 | Cc1nn(C)c2c(Cl)cc(C(=O)N3CCC4(CC3)CC(=O)c3nc(C(C)(C)C)sc3C4)cc12 [US20240109915, Example 84]
